Where a name gives a salt, the structure may show the parent alone.
Biological target: HCV NS5b RNA dependent RNA polymerase (Hepatitis C virus genotype 1a, UniProt P27958)
Assay: HCV NS5b RNA dependent RNA polymerase inhibition assay (3H-GTP incorporation, scintillation proximity)
Assay type: biochemical
Conditions: inhibition of HCV NS5b polymerase activity; Table 2; read-out: concentration in micromolar required for 50% inhibition
Experimental: Compounds of the present invention are evaluated for inhibition of HCV NS5b RNA dependent RNA polymerase activity in assays comprised of a suitable buffer (e.g. 20 mM Tris-HCl pH 7.6), primed or unprimed RNA templates, GTP, ATP, CTP, and UTP, MnCl2 or MgCl2, and reducing agent such as 10 mM dithiothreitol or 2-mercaptoethanol. The assay buffer may contain salts such as ammonium acetate, KCl, or NaCl, and nonionic or zwitterionic detergents such as Tween or CHAPS. The incorporation of nucleotides into the complementary RNA strand may be monitored by the incorporation of radiolabeled NTP (e.g. ^3H labeled GTP). Suitable RNA templates for de novo initiation in the presence of 20-50 μM GTP or ATP are the homopolymers poly rC and poly rU, respectively. Heteropolymer RNA templates with 1-3 cytidine (C) bases or 1-3 uridine (U) bases at the 3′ terminus of the template may also be used for de novo initiation. Primed RNA templates such as poly rC primed with oligo rG or oligo dG, and poly rA primed with oligo rU may also be used to detect polymerase activity. The primers may be any length greater than 10 bases. A biotin residue may be added to the 5′ end of the template or the 5′ end of the primer to capture the template and the newly synthesized, complementary strand on avidin coated spheres. […]

Chain of HCV NS5b RNA dependent RNA polymerase (P27958 2421-3011): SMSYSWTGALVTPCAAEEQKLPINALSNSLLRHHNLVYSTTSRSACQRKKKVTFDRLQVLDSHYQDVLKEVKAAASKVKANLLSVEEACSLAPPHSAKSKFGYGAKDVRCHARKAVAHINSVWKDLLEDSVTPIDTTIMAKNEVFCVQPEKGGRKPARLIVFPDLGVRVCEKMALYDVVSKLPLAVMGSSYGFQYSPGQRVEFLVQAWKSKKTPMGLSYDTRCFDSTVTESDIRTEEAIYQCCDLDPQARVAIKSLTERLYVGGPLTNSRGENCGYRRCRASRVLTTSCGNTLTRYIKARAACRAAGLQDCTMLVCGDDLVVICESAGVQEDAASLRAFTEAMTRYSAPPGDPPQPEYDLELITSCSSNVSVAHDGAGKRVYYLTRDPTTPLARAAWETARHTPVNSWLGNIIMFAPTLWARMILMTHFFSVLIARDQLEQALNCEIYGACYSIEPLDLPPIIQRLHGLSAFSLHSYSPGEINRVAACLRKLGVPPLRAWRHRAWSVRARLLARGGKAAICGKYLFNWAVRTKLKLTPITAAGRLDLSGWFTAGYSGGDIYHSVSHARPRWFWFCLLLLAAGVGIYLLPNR

IC50 [µM] | SMILES
1.42 | NCc1ccc(Nc2ccc(C(F)(F)F)cc2NC(=O)c2cc(Cl)c(Cl)cc2C(=O)O)cc1 [i., 2-[[[2-[[4-(Aminomethyl)phenyl]amino]-5-(trifluoromethyl)phenyl]amino]carbonyl]-4,5-dichlorobenzoic acid monohydrochloride]
1.74 | N#Cc1ccc(Nc2ccc(C(F)(F)F)cc2NC(=O)c2ccccc2C(=O)O)cc1 [xvii., 2-({[2-[(4-cyanophenyl)amino]-5-(trifluoromethyl)phenyl]amino}carbonyl)benzoic acid]
